Measurements taken from patent US20260069626A1, “Compositions and Methods to Protect and Enhance Structural and Functional Integrity of the Intestinal Glycocalyx” (Calroy Health Sciences, LLC, priority 2023, published 2026).

Tests used:
[1] = tested on: mouse intestinal glycocalyx; assay: DSS-treated mice: WGA-FITC immunofluorescence of colon glycocalyx (Example 3); format: in vivo; details: for Average Florescence Intensity of Mouse Intestinal Glycocalyx after WGA-FITC Staining (AVI): oral mg/kg/day per Table IV: single agents 100, 3′-SL + 6′-SL 100 each, HMOs 50 each + COS 100; for mouse intestinal glycocalyx (FIG. 8, FIG. 9): oral, doses of Table IV
Protocol: Male C57BL/6J mice (18-20 g) of 6 weeks old were housed under controlled conditions with a constant temperature (23±2° C.), stable humidity, and a 12-hour light/dark cycle. After a one-week acclimatization period, the mice were randomly divided into 7 groups, with 5 mice per group: Control, DSS, DSS+3′-SL, DSS+6′-SL, DSS+5-ASA, DSS+6′-SL+3′-SL, and DSS+HMOs+COS. The control group received sterile water for 19 days. The DSS group was given 4% (wt/vol) DSS in their drinking water from days 8-14, with daily oral gavage of sterile water for 11 days. The other groups were treated with 3% DSS in their drinking water from days 8-14, along with oral administration of various functional glycans (mg/kg/day) of COS up to the 19th day (See Experimental Design in Table III). The DSS solution was replaced every two days to maintain its bioactivity. Mouse body weight, stool consistency, and rectal bleeding were monitored daily, alongside observations of coat sheen, mental state, and activity levels.
Immunofluorescence staining of mouse colon tissue was performed using the following procedure. Paraffin sections were prepared from the distal colon, 1 cm from the anus. Deparaffinization and rehydration were performed with xylene and ethanol, as follows: xylene (5 min×2), 100% ethanol (5 min×2), 90% ethanol (5 min×1), 80% ethanol (5 min×1), 70% ethanol (5 min×1), and deionized water (10 s). Endogenous peroxidase activity was quenched with 0.75% hydrogen peroxide for 10 minutes, followed by PBS washes. Antigen retrieval was performed by boiling the sections in 0.01 mol/L sodium citrate for 30 minutes. For WGA staining, sections were incubated overnight at 4° C. with 0.1 μg/μL FITC-WGA in PBS (40 μL per sample). After washing with PBS, nuclei were counterstained with DAPI and sections were mounted with an anti-fade medium. The stained sections were visualized under a fluorescence microscope, and the colonic mucosal glycocalyx was quantified using ImageJ software.

[2] = tested on: Caco-2 intestinal epithelial cell glycocalyx; assay: Prevention/repair of DSS damage to Caco-2 glycocalyx, microfluidic chip, WGA-FITC (Example 2); format: cell-based; details: 2% DSS, single agents 200 μg/ml, 6′-SL and 3′-SL each 100 μg/ml, 100 μg/ml COS with 50 μg/ml each of 6′-SL, 2′-FL
Protocol: Using the same microfluidic chip model in Example 1, different functional glycans of RS, COS and hMO, and some combinations were evaluated for their capability to prevent and repair the damages of Caco-2 intestinal epithelial cell glycocalyx caused by DSS. […] In addition to DSS, a positive control of 5-aminosalicylic acid (5-ASA), RS, COS, different hMOS, and a combination of hMOs and COS at different concentrations in phosphate-buffered saline (PBS) with water were introduced into microfluidic chips for testing their effects on the intestinal glycocalyx in the presence of DSS.
FIG. 1 depicts the images of the intestinal epithelial cell glycocalyx and nucleus stained by WGA-FITC individually and together. […] Briefly, 2% DSS caused a significant decrease of intestinal glycocalyx as measured by WGA fluorescence intensity.

[3] = tested on: C57BL/6J mice treated with DSS; assay: DSS-treated mice: body weight and Disease Activity Index (Example 3); format: in vivo, mouse; details: oral, doses of Table IV
Protocol: Male C57BL/6J mice (18-20 g) of 6 weeks old were housed under controlled conditions with a constant temperature (23±2° C.), stable humidity, and a 12-hour light/dark cycle. After a one-week acclimatization period, the mice were randomly divided into 7 groups, with 5 mice per group: Control, DSS, DSS+3′-SL, DSS+6′-SL, DSS+5-ASA, DSS+6′-SL+3′-SL, and DSS+HMOs+COS. The control group received sterile water for 19 days. The DSS group was given 4% (wt/vol) DSS in their drinking water from days 8-14, with daily oral gavage of sterile water for 11 days. […] Mouse body weight, stool consistency, and rectal bleeding were monitored daily, alongside observations of coat sheen, mental state, and activity levels. The Disease Activity Index (DAI) was used to assess colitis severity, calculated as the mean of the scores for weight loss, stool consistency, and rectal bleeding as described below. Mice were weighed daily at the same time, with the percentage of weight loss compared to the end of the acclimation period: <1% scored 0; 1-5% scored 1; 5-10% scored 2; 10-20% scored 3; >20% scored 4. Stool consistency was also evaluated daily: normal stool scored 0; soft but formed stool scored 1; paste-like stool scored 2; liquid stool scored 3. […] The DAI was calculated as the average of these three scores. […]

Q: With `CC(=O)N[C@H]1[C@H]([C@H](O)[C@H](O)CO)O[C@@](O[C@H]2[C@@H](O)[C@@H](CO)O[C@@H](O[C@H]3[C@H](O)[C@@H](O)C(O)O[C@@H]3CO)[C@@H]2O)(C(=O)O)C[C@@H]1O` (stereo partly drawn) [3′-SL, 3′-sialyllactose] as the compound, how does the “Average Florescence Intensity of Mouse Intestinal Glycocalyx after WGA-FITC Staining (AVI)” value (from here on “Average Florescence Intensity”) [1] read?
A: 2.45

Q: And the “mouse intestinal glycocalyx (FIG. 8, FIG. 9)” value [1]?
A: increased

Q: `Nc1ccc(O)c(C(=O)O)c1` [5-ASA, 5-aminosalicylic acid, reference compound] was tested. Which “damage of the intestinal glycocalyx caused by DSS (WGA fluorescence intensity, FIG. 1-2)” value [2] did it give?
A: significantly prevented the damage

Q: What about the “DAI at the end of the study compared to DSS only (FIG. 6)” value [3] of the same compound?
A: significantly reduced

Q: And the “body weight at the end of the study compared to DSS only (FIG. 4)” value [3]?
A: significant increase

Q: And the “Average Florescence Intensity” value [1]?
A: 2.56

Q: For `CC(=O)N[C@H]1[C@H]([C@H](O)[C@H](O)CO)O[C@@](OC[C@H]2O[C@@H](O[C@H]3[C@H](O)[C@@H](O)[C@H](O)O[C@@H]3CO)[C@H](O)[C@@H](O)[C@H]2O)(C(=O)O)C[C@@H]1O` [6′-SL, 6′-sialyllactose], which “damage of the intestinal glycocalyx caused by DSS (WGA fluorescence intensity, FIG. 1-2)” value [2] is on record?
A: significantly prevented the damage

Q: What about the “Average Florescence Intensity” value [1] of the same compound?
A: 2.75

Q: What about the “mouse intestinal glycocalyx (FIG. 8, FIG. 9)” value [1] of the same compound?
A: increased
